Results: patent US10781185B2, “Heterocyclic compounds for the inhibition of PASK” (BioEnergenix LLC, priority 2009, dated 2020)
Blank lines part the entries; values can stand above or below the molecule they belong to.

Experiments:
PASK [1] = target: PASK (UniProt # Q96RG2; human recombinant N-terminal GST tagged construct, residues 879-1323) (Homo sapiens (Human), UniProt Q96RG2); assay: PASK ATP Radiochemical Assay; type: biochemical; settings: 33P-ATP radiochemical, Myelin Basic Protein substrate; read-out: IC50 Kinase Domain
Experimental: PASK ATP Radiochemical Assay
Test compounds in DMSO are then added and the mixture, followed by delivery of ^33P-ATP (specific activity 0.01 μCi/μl final) to initiate the reaction. […] The entire reaction mixture is washed through onto a P81 Phosphocellulose paper and washed three times for 10 minutes in 75 mM phosphoric acid and once in methanol prior to drying and scintillation counting.

PASK [2] = target: PASK (Homo sapiens (Human), UniProt Q96RG2); assay: PAS Kinase Luminescence Assay (Kinase-Glo); type: biochemical; settings: purified hPASK from insect cells, read-out: IC50 Kinase Domain
Experimental: Biochemical Assay for hPASK Activity
PAS Kinase Luminescence Assay
One assay for purified hPASK activity utilizes the Kinase-Glo Luminescent Kinase Assay (Promega), which quantifies the amount of ATP remaining in solution following kinase reaction. The assay is carried out in a 96-well plate format and is performed by adding a volume of Kinase-Glo Reagent (Promega, catalog # V3771) equal to the volume of solution in the well of a completed kinase reaction. Kinase-Glo reagent contains Luciferase and its substrate. After addition to a kinase reaction it allows to measure luminescence. The amount of ATP left in solution at the time of Kinase-Glo Plus addition is directly proportional to the luminescence that is measured in each well, and inversely correlated with kinase activity.
Purified hPASK from insect cells (0.02 μg) is added to a 50 μL reaction mix containing 40 mM HEPES (pH 7.0), 100 mM KCl, 5 mM MgCl2, 1 mM DTT and […] of MBP protein. Inhibitory compounds are then added and the mixture is incubated for 10 min at 25° C. before adding 5 μL of ATP (at desired concentration). The reaction is allowed to proceed at 25° C. for 1 hour before adding 50 μL of Kinase-Glo reagent. The luminescence is measured as soon as 10 minutes after Kinase-Glo reagent is added.

[3] = system: C57Bl6 mice fed a high fat diet; assay: Mouse High Fat Dietary Model with fast/re-feed; type: in vivo; settings: for reduction in body weight vs vehicle: fast/re-feed mice
Experimental: Mouse High Fat Dietary Model
A standard model of human hyperlipidemia and insulin resistance is the mouse fed a high fat diet for several weeks (31, 33). Additionally, since hepatic lipid synthesis is known to be regulated by food consumption, the fast/re-feed cycle of Horton et al. (32) was incorporated into the chronic high fat diet model. The compound was evaluated in this model as an agent to restore insulin sensitivity and lower blood lipids. The chronic high fat diet was fed to mice to simulate a standard Western diet which is elevated in calories from high fat and carbohydrate intake. This and similar models of dietary induced obesity, insulin insensitivity and elevated serum lipids and cholesterol are used as mouse and rat models of human pathology including hyperlipidemia, type II diabetes, atherosclerosis, obesity, cardiovascular and liver disease. These models have been used as excellent predictors of efficacy in human clinical trials (PPAR and FXR agonists).
The farnesoid X receptor (FXR) is a ligand-activated transcription factor and a member of the nuclear receptor superfamily. […] While the mechanism of action of FXR agonists is clearly distinct from PASK inhibition, WAY-362450 has been used as a positive control compound producing physiologically beneficial changes in glucose and lipid metabolism resembling inhibition of PASK. Throughout these in vivo assays, WAY-362450 has been used as a control compound, and will be referred to as such.
Male C57Bl6 mice were obtained from Jackson Laboratories and had been fed a high fat diet (60% kcal fat) for eight weeks. The mice were fed an identical high fat diet (Research Diet D12492) upon arrival and during the study. All mice were treated with the subject compound at 30 or 100 mg/kg, control compound (WAY-362450) at 30 mg/kg or vehicle by oral gavage daily for three days. On the final day, 10 animals from each group began an 24 hour fast and then were sacrificed (fasted groups 1a,2a,3a,4a). Alternatively, 10 animals from each group underwent a 24 hour fast followed by a 12 hour re-feed period with the same high fat diet ad libitum and then were sacrificed (re-fed groups 1b,2b,3b,4b).
(§1) Body weights were monitored at the start and end of the protocol. After completing the fast or fast/re-feed conditions, the mice were given avertin for anesthesia by intraperitoneal administration. Whole blood was collected by cardiac puncture and the mice were terminated by cervical dislocation. Livers were collected surgically, weighed and immediately frozen in liquid nitrogen. The blood was placed in Li-heparin treated tubes, centrifuged to collect plasma and the plasma frozen.
The plasma was analyzed by standard colorimetric assays for glucose, insulin, triglycerides and cholesterol. Frozen liver samples were pulverized and extracted in ethanolic KOH and analyzed for liver triglycerides and cholesterol.

[4] = system: Sprague Dawley rats on a high fructose diet; assay: Rat High Fructose Model with Fast/Re-Feed; type: in vivo; settings: for body weight change relative to the Vehicle group: FIG. 1; for decrease in plasma glucose compared to vehicle / reduction in plasma insulin levels: after fast and re-feed
Experimental: Rat High Fructose Model with Fast/Re-Feed
Another standard model of human hyperlipidemia and insulin resistance is the rat fed a high fructose diet for several weeks (33). Additionally, since hepatic lipid synthesis is known to be regulated by food consumption, the fast/reefed cycle of Horton et al. (32) was incorporated into the chronic high fructose diet model. A compound disclosed above was evaluated in this model as an agent to restore insulin sensitivity and lower blood lipids.
Eight week old male Sprague Dawley rats were purchased from Harlan, Inc. The rats weighed 200-225 g upon arrival and were divided into groups as detailed in Table 2 and were immediately placed on a high fructose diet (60% kcal fructose; Open Source Diet # D00111301) ad libitum for three weeks. During the last week of feeding the high fructose diet, the rats were dosed with vehicle (5% solutol, 8% β cyclo-dextrin), subject compound at 30 mg/kg or 100 mg/kg or the control compound at 30 mg/kg by oral gavage once daily for 7 days. On the final day, all animals were placed on a […] followed by a 12 hour re-feed period on the high fructose diet ad libitum.
as §1, with “throughout” for “at the start and end of”, “rats” for “mice”
The plasma was analyzed by standard colorimetric assays for glucose, insulin, triglycerides and cholesterol.

[5] = 30 mg/kg oral gavage daily for three days
[6] = fasted and re-fed mice, 30 mg/kg
[7] = fasted only mice, 30 mg/kg oral gavage daily for three days
[8] = 30 mg/kg oral gavage once daily for 7 days

PASK (UniProt # Q96RG2; human recombinant N-terminal GST tagged construct, residues 879-1323) (Homo sapiens (Human), UniProt Q96RG2), sequence (Q96RG2 879-1323, change not shown): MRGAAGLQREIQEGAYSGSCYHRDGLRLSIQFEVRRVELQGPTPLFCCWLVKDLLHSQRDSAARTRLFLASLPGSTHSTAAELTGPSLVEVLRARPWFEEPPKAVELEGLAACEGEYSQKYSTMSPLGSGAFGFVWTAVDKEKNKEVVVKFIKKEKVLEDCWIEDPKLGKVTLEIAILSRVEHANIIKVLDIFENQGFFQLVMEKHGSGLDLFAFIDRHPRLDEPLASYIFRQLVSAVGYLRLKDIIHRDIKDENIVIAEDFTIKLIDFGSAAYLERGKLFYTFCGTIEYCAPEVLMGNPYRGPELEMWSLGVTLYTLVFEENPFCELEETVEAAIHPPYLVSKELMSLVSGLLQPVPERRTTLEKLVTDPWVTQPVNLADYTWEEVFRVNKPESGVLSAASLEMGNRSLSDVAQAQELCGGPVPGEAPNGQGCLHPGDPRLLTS
PASK (Homo sapiens (Human), UniProt Q96RG2), sequence (Q96RG2 999-1251): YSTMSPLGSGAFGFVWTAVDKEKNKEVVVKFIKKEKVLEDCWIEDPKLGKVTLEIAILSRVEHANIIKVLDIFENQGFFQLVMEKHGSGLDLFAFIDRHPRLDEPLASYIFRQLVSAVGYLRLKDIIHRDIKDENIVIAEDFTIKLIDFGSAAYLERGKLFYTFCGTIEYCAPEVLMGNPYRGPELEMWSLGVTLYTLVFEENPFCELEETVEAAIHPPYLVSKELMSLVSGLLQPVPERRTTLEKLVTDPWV

IC50 (PASK [1]): < 10 µM | IC50 (PASK [2]): < 10 µM
SMILES: O=C(O)c1ccc2nc(-c3ccccc3)c(N3CCN(c4ncccn4)CC3)nc2c1 [Example 19, 2-Phenyl-3-(4-(pyrimidin-2-yl)piperazin-1-yl)quinoxaline-6-carboxylic acid]

IC50 (PASK [1]): < 10 µM | IC50 (PASK [2]): < 10 µM
SMILES: COc1ccc(-c2nc3ccc(-c4nnn[nH]4)cc3nc2-c2ccc(OC)cc2)cc1 [Example 31, 2,3-Bis(4-methoxyphenyl)-6-(1H-tetrazol-5-yl)quinoxaline]

SMILES: O=C(O)c1ccc2nc(N3CCN(c4ccccn4)CC3)c(-c3ccc(F)cc3)nc2c1 [Example 27, 3-(4-Fluorophenyl)-2-(4-(pyridin-2-yl)piperazin-1-yl)quinoxaline-6-carboxylic acid]
IC50 (PASK [2]): < 10 µM

IC50 (PASK [1]): < 10 µM | IC50 (PASK [2]): < 10 µM
SMILES: CN1CCCN(c2nc3cc(C(=O)O)ccc3nc2-c2ccccc2)CC1 [Example 17, 3-(4-Methyl-1,4-diazepan-1-yl)-2-phenylquinoxaline-6-carboxylic acid]

IC50 (PASK [2]): < 10 µM
SMILES: COc1ccc(C2CCN(c3nc4cc(C(=O)O)ccc4nc3-c3ccccc3)CC2)cc1 [Example 11, 3-(4-(4-Methoxyphenyl)piperidin-1-yl)-2-phenylquinoxaline-6-carboxylic acid]

IC50 (PASK [1]): < 10 µM | IC50 (PASK [2]): < 10 µM
SMILES: O=C(O)c1ccc2nc(-c3ccccc3)c(N3CCN(c4ccc(C(F)(F)F)cn4)CC3)nc2c1 [Example 20, 2-Phenyl-3-(4-(5-(trifluoromethyl)pyridin-2-yl)piperazin-1-yl)quinoxaline-6-carboxylic acid]

IC50 (PASK [2]): < 10 µM
SMILES: O=C(O)c1ccc2nc(N3CCCCC3)c(-c3ccccc3)nc2c1 [Example 23, 3-Phenyl-2-(piperidin-1-yl)quinoxaline-6-carboxylic acid]

IC50 (PASK [1]): < 10 µM | IC50 (PASK [2]): < 10 µM
SMILES: O=C(O)c1ccc2nc(-c3ccccc3)c(N3CCN(c4ccc5ccccc5n4)CC3)nc2c1 [Example 21, 2-phenyl-3-(4-(quinolin-2-yl)piperazin-1-yl)quinoxaline-6-carboxylic acid]

IC50 (PASK [2]): > 10 µM
SMILES: O=C(O)c1ccc2nc(N3CCCCCC3)c(-c3ccccc3)nc2c1 [Example 22, 2-(Azepan-1-yl)-3-phenylquinoxaline-6-carboxylic acid]

IC50 (PASK [2]): < 10 µM
SMILES: O=C(O)c1ccc2nc(N3CCC(c4cccc(Cl)c4)CC3)c(-c3ccc(F)cc3)nc2c1 [Example 25, 2-(4-(3-Chlorophenyl)piperidin-1-yl)-3-(4-fluorophenyl)quinoxaline-6-carboxylic acid]

IC50 (PASK [1]): < 10 µM | IC50 (PASK [2]): < 10 µM
SMILES: O=C(O)c1ccc2nc(-c3ccccc3)c(N3CCOCC3)nc2c1 [Example 16, 3-Morpholino-2-phenylquinoxaline-6-carboxylic acid]

IC50 (PASK [1]): < 10 µM | IC50 (PASK [2]): < 10 µM
SMILES: O=C(O)c1ccc2nc(N3CCC(c4ccc(Cl)cc4)CC3)c(-c3ccc(F)cc3)nc2c1 [Example 24, 2-(4-(4-Chlorophenyl)piperidin-1-yl)-3-(4-fluorophenyl)quinoxaline-6-carboxylic acid]

SMILES: CC(C)N(C)c1nc2cc(C(=O)O)ccc2nc1-c1ccc(F)cc1 [subject compound]
reduction in liver weight ([3]; 30 and 100 mg/kg, trend of dose dependent reductions): 7-9% | decrease in plasma glucose vs vehicle ([3]; fast and re-feed mice, highest dose 100 mg/kg): up to 21% | reduction in body weight vs vehicle [3, 5]: 2.7% | reduction in body weight vs vehicle ([3]; 100 mg/kg oral gavage daily for three days): 5.1% | decrease in plasma insulin vs vehicle [3, 6]: 10% | decrease in plasma insulin vs vehicle ([3]; fasted and re-fed mice, 100 mg/kg): 28% | decrease in plasma glucose vs vehicle ([3]; fasted only mice, 30 mg/kg): 30% | decrease in body weight vs vehicle [3, 7]: 1.8% | decrease in plasma glucose vs vehicle ([3]; fasted only mice, 100 mg/kg): 43% | decrease in body weight vs vehicle ([3]; fasted only mice, 100 mg/kg oral gavage daily for three days): 5.1% | decrease in plasma insulin vs vehicle ([3]; fasted only mice, 30 and 100 mg/kg): up to 26% | body weight change relative to the Vehicle group [4, 8]: modest increase in body weight | decrease in plasma cholesterol vs vehicle ([4]; 30 mg/kg, 7 days): 5.7% | reduction in plasma triglycerides vs vehicle ([4]; 30 mg/kg, 7 days): 25.1% | decrease in plasma glucose compared to vehicle ([4]; 30 mg/kg, 7 days): 21.5% | reduction in plasma insulin levels ([4]; 30 mg/kg, 7 days): 15.4% | body weight change relative to the Vehicle group ([4]; 100 mg/kg oral gavage once daily for 7 days): modest decrease in body weight | decrease in plasma cholesterol vs vehicle ([4]; 100 mg/kg, 7 days): 10% | maximal reduction in liver weight ([4]; 100 mg/kg, 7 days): about 4% | reduction in plasma triglycerides vs vehicle ([4]; 100 mg/kg, 7 days): 54.3% | decrease in plasma glucose compared to vehicle ([4]; 100 mg/kg, 7 days): 26.3% | reduction in plasma insulin levels ([4]; 100 mg/kg, 7 days): 31.4%

IC50 (PASK [1]): < 10 µM | IC50 (PASK [2]): < 10 µM
SMILES: COc1ccc(C2CCN(c3nc4ccc(C(=O)O)cc4nc3-c3ccc(F)cc3)CC2)cc1 [Example 26, 3-(4-Fluorophenyl)-2-(4-(4-methoxyphenyl)piperidin-1-yl)quinoxaline-6-carboxylic acid]

SMILES: CC(C)OC(=O)C1=CN(C(=O)c2ccc(F)c(F)c2)CC(C)(C)c2c1[nH]c1ccccc21 [WAY-362450, reference compound]
effects on liver weight ([3]; 30 mg/kg): identical to those of the subject compound at the same dose | increase in plasma glucose vs vehicle ([3]; fast and re-feed mice, 30 mg/kg): 7.6% | reduction in body weight vs vehicle [3, 5]: 6.5% | decrease in plasma insulin vs vehicle [3, 6]: 22% | decrease in plasma glucose vs vehicle ([3]; fasted only mice, 30 mg/kg): 19% | decrease in plasma insulin vs vehicle ([3]; fasted only mice, 30 mg/kg): 39% | decrease in body weight vs vehicle [3, 7]: 4% | body weight change relative to the Vehicle group [4, 8]: significant increase in body weight | increase in plasma cholesterol vs vehicle ([4]; 30 mg/kg, 7 days): 17% | reduction in plasma triglycerides vs vehicle ([4]; 30 mg/kg, 7 days): 68% | decrease in plasma glucose compared to vehicle ([4]; 30 mg/kg, 7 days): did not alter plasma glucose concentrations | reduction in plasma insulin levels ([4]; 30 mg/kg, 7 days): 63.2%

IC50 (PASK [1]): > 10 µM | IC50 (PASK [2]): < 10 µM
SMILES: O=C(O)c1ccc2nc(N3CCC(c4ccc(C(F)(F)F)cc4)CC3)c(-c3ccc(F)cc3)nc2c1 [Example 29, 3-(4-Fluorophenyl)-2-(4-(4-(trifluoromethyl)phenyl)piperidin-1-yl)quinoxaline-6-carboxylic acid]

SMILES: O=C(O)c1ccc2nc(N3CCC(c4ccccc4)CC3)c(N3CCC(c4ccccc4)CC3)nc2c1 [Example 30, 2,3-Bis(4-phenylpiperidin-1-yl)quinoxaline-6-carboxylic acid]
IC50 (PASK [1]): < 10 µM | IC50 (PASK [2]): < 10 µM
